The term IC50 denotes the concentration that inhibits the measured activity by half.

This note sets out measurements from US11976083B2, “Inhibitors of peptidylarginine deiminases” (Gilead Sciences, Inc., priority 2020, dated 2024).

For the experiment, the target named is T1, human PAD4 (Homo sapiens, UniProt Q9UM07).
T1 construct: human PAD4 (NM_012387), A2-P663, was PCR amplified; His-SUMO (N, cleaved yes); made in house; host or cells: E. coli BL21(DE3)
Put plainly: In vitro PAD4 BAEE biochemical assay. To be noted: BAEE substrate 3 mM, 5 nM PAD4, 2 mM calcium chloride; geometric mean of multiple experiments. Put shortly: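 Recombinant human PAD4 (5 nM final) with 2 mM CaCl2 was preincubated with compound 30 min at 25 °C in MOPS buffer pH 7.6, then reacted with 3 mM BAEE for 2 h at 25 °C. After EDTA stop, released ammonia was detected by o-phthalaldehyde/DTT fluorescence (ex 405/em 535 nm); IC50 from four-parameter fit, geometric mean.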

T1 sequence (Q9UM07 2-663): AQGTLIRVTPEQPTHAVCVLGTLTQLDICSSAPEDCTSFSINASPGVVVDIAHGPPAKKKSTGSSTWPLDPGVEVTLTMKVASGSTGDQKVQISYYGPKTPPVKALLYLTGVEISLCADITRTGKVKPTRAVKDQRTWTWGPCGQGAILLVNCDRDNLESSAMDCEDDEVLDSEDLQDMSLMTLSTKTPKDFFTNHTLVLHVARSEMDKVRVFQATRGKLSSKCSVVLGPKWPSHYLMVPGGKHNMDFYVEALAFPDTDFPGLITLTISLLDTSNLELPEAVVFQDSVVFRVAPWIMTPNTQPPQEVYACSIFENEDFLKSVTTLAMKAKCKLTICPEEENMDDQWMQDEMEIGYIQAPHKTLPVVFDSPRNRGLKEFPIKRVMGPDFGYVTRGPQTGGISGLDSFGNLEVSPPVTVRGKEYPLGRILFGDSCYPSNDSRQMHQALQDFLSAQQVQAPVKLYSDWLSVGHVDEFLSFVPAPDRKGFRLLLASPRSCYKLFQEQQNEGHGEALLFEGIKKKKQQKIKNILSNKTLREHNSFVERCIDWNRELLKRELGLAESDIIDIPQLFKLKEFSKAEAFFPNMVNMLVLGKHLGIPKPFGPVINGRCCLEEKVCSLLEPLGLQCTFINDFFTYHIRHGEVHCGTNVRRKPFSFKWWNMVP

For the molecule `C[C@H]1NC(=O)C(C)(C)CCCCCCn2c(-c3nc4cc(C(=O)N5[C@H]6CC[C@@H]5[C@H](N)C6)c(F)cc4n3C3CC3)cc3ccc1nc32` [Example 488, (11~{R})-17-[5-[(1~ {R},2~{R},4~{S})-2-amino-7-azabicyclo [2.2.1]heptane-7-carbonyl]-1-cyclopropyl-6-fluoro-benzimidazol-2-yl]-8,8,11-trimethyl-1,10,19-triazatricyclo [10.5.2.0^{15,18}]nonadeca-12(19),13,15(18),16-tetraen-9-one], the IC50 was found to be 64 nM.

Take `CO[C@@H]1CCN(C(=O)c2cc(F)c3c(c2)nc(-c2cc4ccc5nc4n2CCCCC[C@]2(F)C[C@H]2C(=O)N[C@@H]5C)n3C2CC2)C[C@@H]1N` [Example 704, (2~{R},5~{S},7~{S})-14-[5-[(3~{S},4~{R})-3-amino-4-methoxy-piperidine-1-carbonyl]-1-cyclopropyl-7-fluoro-benzimidazol-2-yl]-7-fluoro-2-methyl-3,13,19-triazatetracyclo[11.5.2.0^ {5,7}.0^{16,20}]icosa-1(19), 14,16(20),17-tetraen-4-one]: the IC50 was determined as 31 nM.

For the molecule `COc1cc(C(=O)N2C[C@H](N)[C@@H]3CC[C@H]2C3)cc2nc(-c3cc4ccc5nc4n3CCCCCC(C)(C)C(=O)N[C@@H]5C)n(C)c12` [Example 443, (10~{R})-16-[5-[(1~{S},4~{R},5~{})-4-amino-2-azabicyclo[3.2.1]octane-2-carbonyl]-7-methoxy-1-methyl-benzimidazol-2-yl]-7,7,10-trimethyl-1,9,18-triazatricyclo[9.5.2.0^{14,17}]octadeca-11(18),12,14(17),15-tetraen-8-one], the IC50 came out at 37 nM.

In the case of `COc1cc(C(=O)N2[C@H]3CC[C@@H]2[C@H](N)C3)cc2nc(-c3cc4ccc5cc4n3CCCC3CCN(CC3)C(=O)c3ccccc3-5)n(C)c12` [Example 101, 17-[5-[(1~{R},2~{R},4~{S})-2-amino-7-azabicyclo[2.2.1]heptane-7-carbonyl]-7-methoxy-1-methyl-benzimidazol-2-yl]-9,16-diazapentacyclo[14.5.2.2^{9,12}.0^{2,7}.0^ {19,23}]pentacosa-1(22),2,4,6,17,19(23),20-heptaen-8-one], the IC50 is 7450 nM.

For `C[C@H]1NC(=O)[C@@H]2C[C@H]2CCCC(F)(F)Cn2c(-c3nc4cc(C(=O)N5C[C@H](N)[C@@H]6CC[C@H]5C6)cc(F)c4n3[C@H]3C[C@@H]3F)cc3ccc1nc32` [Example 479, (2~{R},5~{R},7~{R})-14-[5-[(1~{S},4~{R},5~{R})-4-amino-2-azabicyclo[3.2.1]octane-2-carbonyl]-7-fluoro-1-[(1~{S},2~{S})-2-fluorocyclopropyl]benzimidazol-2-yl]-11,11-difluoro-2-methyl-3,13,19-triazatetracyclo[11.5.2.0^{5,7}.0^{16,20}] icosa-1(19),14,16(20),17-tetraen-4-one], the IC50 worked out at 47 nM.

Regarding `Cc1cc2c(cc1C(=O)N1[C@H]3CC[C@@H]1[C@H](N)C3)nc(-c1cc3ccc4nc3n1CCCCCCC(C)(C)C(=O)N[C@@H]4C)n2C` [Example 556, (11~{R})-17-[5-[(1~{R}, 2~{R},4~{S})-2-amino-7-azabicyclo[2.2.1]heptane-7-carbonyl]-1,6-dimethyl-benzimidazol-2-yl]-8,8,11-trimethyl-1,10,19-triazatricyclo[10.5.2.0^ {15,18}]nonadeca-12(19),13,15(18),16-tetraen-9-one], the IC50 worked out at 69 nM.

For `COc1cc(C(=O)N2CCC[C@@H](N)C2)cc2nc(-c3cc4ccc5nc4n3C[C@H]3C[C@H]3CC[C@H]3C[C@@H]3C(=O)N[C@@H]5C)n(C)c12` (single isomer, unassigned) [Example 116, (3˜{S},5˜{R},8˜{S},10˜{S},13˜{R})-19-[5-[(3˜{R})-3-aminopiperidine-1-carbonyl]-7-methoxy-1-methyl-benzimidazol-2-yl]-13-methyl-1,12,21-triazapentacyclo[12.5.2.0^{3,5}.0^{8,10}.0^{17,20}]henicosa-14(21),15,17(20),18-tetraen-11-one], the IC50 is 255 nM.

Consider `CO[C@H]1C[C@@H]1n1c(-c2cc3ccc4nc3n2CC(F)(F)CCC[C@@H]2C[C@H]2C(=O)N[C@@H]4C)nc2cc(C(=O)N3C[C@H]4CC[C@@H]3[C@@H]4N)cc(F)c21` [Example 804, (2~{R},5~{R},7~{R})-14-[5-[(1~{R},4~{R},7~{R})-7-amino-2-azabicyclo[2.2.1]heptane-2-carbonyl]-7-fluoro-1-[(1~{S},2~{S})-2-methoxycyclopropyl]benzimidazol-2-yl]-11,11-difluoro-2-methyl-3,13,19-triazatetracyclo[11.5.2.0^ {5,7}.0^{16,20}]icosa-1(18),14,16,19-tetraen-4-one], for which the IC50 was found to be 27 nM.

With `COc1cc(C(=O)N2CCC[C@@H](N)C2)cc2nc(-c3cc4ccc5nc4n3CCCCCCC(C)(C)C(=O)N[C@@H]5C)n(C)c12` [Example 16, (11~{R})-17-[5-[(3~{R})-3-aminopiperidine-1-carbonyl]-7-methoxy-1-methyl-benzimidazol-2-yl]-8,8,11-trimethyl-1,10,19-triazatricyclo[10.5.2.0^{15,18}]nonadeca-12(19),13,15(18),16-tetraen-9-one], the IC50 was found to be 67 nM.

In the case of `C[C@H]1NC(=O)c2ccc(Cl)nc2CCCCCn2c(-c3nc4cc(C(=O)N5C[C@H](N)[C@@H]6CC[C@H]5C6)cc(F)c4n3[C@H]3C[C@@H]3F)cc3ccc1nc32` [Example 840, (2~{R})-17-[5-[(1~{S), 4~{R},5~{R})-4-amino-2-azabicyclo[3.2.1]octane-2-carbonyl]-7-fluoro-1-[(1~ {S},2~{S})-2-fluorocyclopropyl]benzimidazol-2-yl]-8-chloro-2-methyl-3,9,16,22-tetrazatetracyclo[14.5.2.0^ {5,10).0^{19,23}]tricosa-1(22), 5(10),6,8,17,19(23),20-heptaen-4-one], the IC50 came out at 61 nM.

As to `C[C@H]1NC(=O)[C@@H]2C[C@H]2CCCCCn2c(-c3nc4cc(C(=O)N5C[C@H](N)[C@@H]6CC[C@H]5C6)cc(OC(F)F)c4n3C)cc3ccc1nc32` [Example 763, (2~{R},5~{R},7~{R})-14-[5-[(1~{S},4~{R},5~{R})-4-amino-2-azabicyclo[3.2.1]octane-2-carbonyl]-7-(difluoromethoxy)-1-methyl-benzimidazol-2-yl]-2-methyl-3,13,19-triazatetracyclo[11.5.2.0^ {5,7}.0^{16,20}]icosa-1(19),14,16(20),17-tetraen-4-one], the IC50 was 13 nM.

Turning to `COc1cc(C(=O)N2C[C@H](N)[C@@H]3CC[C@H]2C3)cc2nc(-c3cc4ccc5nc4n3CCCCCc3nc(Cl)ccc3C(=O)N[C@@H]5C)n(C3CC3)c12` [Example 809, (2˜{R})-17-[5-[(1˜{S},4˜{R},5˜{R})-4-amino-2-azabicyclo[3.2.1]octane-2-carbonyl]-1-cyclopropyl-7-methoxy-benzimidazol-2-yl]-8-chloro-2-methyl-3,9,16,22-tetrazatetracyclo[14.5.2.0^{5,10}.0^{19,23}]tricosa-1(21),5(10),6,8,17,19,22-heptaen-4-one], the IC50 is 39 nM.

In the case of `COc1cc(C(=O)N2C[C@H]3CC[C@@H]2[C@@H]3N)cc2nc(-c3cc4ccc5nc4n3CCCCCc3nccnc3C(=O)N[C@@H]5C)n(C)c12` [Example 604, (2~{R})-17-[5-[(1~{R},4~ {R},7~{R})-7-amino-2-azabicyclo[2.2.1]heptane-2-carbonyl]-7-methoxy-1-methyl-benzimidazol-2-yl]-2-methyl-3,6,9,16,22-pentazatetracyclo[14.5.2.0^ {5,10}.0^{19,23}]tricosa-1(21),5(10),6,8,17,19,22-heptaen-4-one], the IC50 was found to be 86 nM.

Turning to `CO[C@@H]1CCN(C(=O)c2cc3nc(-c4cc5ccc6nc5n4CCCCC[C@@H]4C[C@H]4C(=O)N[C@@H]6C)n(C4CC4)c3cc2F)C[C@@H]1N` [Example 572, (2~{R},5~{R},7~{R})-14-[5-[(3~{S},4~{R})-3-amino-4-methoxy-piperidine-1-carbonyl]-1-cyclopropyl-6-fluoro-benzimidazol-2-yl]-2-methyl-3,13,19-triazatetracyclo [11.5.2.0^{5,7}.0^{16,20}] icosa-1(19),14,16(20), 17-tetraen-4-one], the IC50 worked out at 53 nM.

On to `COc1cc(C(=O)N2CC[C@@H](OC)[C@@H](N)C2)cc2nc(-c3cc4ccc5nc4n3CCCCCc3ccnc(Cl)c3C(=O)N[C@@H]5C)n(C)c12` [Example 655, (2~{R})-17-[5-[(3~{S},4~{R})-3-amino-4-methoxy-piperidine-1-carbonyl]-7-methoxy-1-methyl-benzimidazol-2-yl]-6-chloro-2-methyl-3,7,16,22-tetrazatetracyclo[14.5.2.0^ {5,10}.0^{19,23}] tricosa-1(22),5,7,9,17,19(23), 20-heptaen-4-one], for which the IC50 amounted to 60 nM.

Take `COc1cc(C(=O)N2[C@H]3CC[C@@H]2[C@H](N)C3)cc2nc(-c3cc4ccc5nc4n3CCCCOCCC(=O)N[C@@H]5C)c(C)n12` [Example 321, (11~{R})-17-[7-[(1~{R},2~{R},4~{S})-2-amino-7-azabicyclo[2.2.1]heptane-7-carbonyl]-5-methoxy-3-methyl-imidazo[1,2-a]pyridin-2-yl]-11-methyl-6-oxa-1,10,19-triazatricyclo[10.5.2.0^{15,18}]nonadeca-12(19),13,15(18),16-tetraen-9-one]: the IC50 was 32 nM.

Regarding `C[C@H]1NC(=O)C(C)(C)CCCCCCn2c(-c3nc4cc(C(=O)N[C@H]5CNCC[C@@H]5F)c(F)cc4n3C3C[C@@H]3F)cc3ccc1nc32` (some centres unmarked) [Example 602, (1~{R})-6-fluoro-1-[(2~{S})-2-fluorocyclopropyl]-~{N}-[(3~{S},4~{S})-4-fluoro-3-piperidyl]-2-[(11~{R})-8,8,11-trimethyl-9-oxo-1,10,19-triazatricyclo [10.5.2.0^{15,18}]nonadeca-12,14,16,18-tetraen-17-yl]benzimidazole-5-carboxamide], the IC50 is 97 nM.
